Source: PubChem BioAssay AID1963978 (Molecular Pharmacology Branch, DTP, NCI, 2024)

Test system: 616215-338-R-J1-PDC spheroids with HUVEC/MSC, viability
Test: Anticancer human tumor 616215-338-R-J1-PDC patient-derived colon adenocarcinoma cell line growth inhibition [PI3K]
Settings: for viability, T/C: stronger effect = lower value
In short: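 Stroma-containing spheroids: tumor line, pooled-donor HUVEC, hMSC. Treatments: targeted agents with PI3K inhibitors. Dosing: clinically relevant, half-log spacing, 10 microM ceiling without known Cmax. Read-out: cell viability.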

[1] = curve of first compound, second compound 0.00316 µM
[2] = curve of first compound, second compound 0.01 µM
[3] = curve of first compound, second compound 0.0316 µM
[4] = curve of first compound, second compound 0.1 µM
[5] = curve of first compound, second compound 0.316 µM
[6] = curve of first compound, second compound 1 µM
[7] = second compound 0.00316 µM, first compound 0.0316 µM
[8] = second compound 0.00316 µM, first compound 0.1 µM
[9] = second compound 0.00316 µM, first compound 0.316 µM
[10] = second compound 0.00316 µM, first compound 1 µM
[11] = second compound 0.00316 µM, first compound 3.16 µM
[12] = second compound 0.00316 µM, first compound 10 µM
[13] = second compound 0.01 µM, first compound 0.0316 µM
[14] = second compound 0.01 µM, first compound 0.1 µM
[15] = second compound 0.01 µM, first compound 0.316 µM
[16] = second compound 0.01 µM, first compound 1 µM
[17] = second compound 0.01 µM, first compound 3.16 µM
[18] = second compound 0.01 µM, first compound 10 µM
[19] = second compound 0.0316 µM, first compound 0.0316 µM
[20] = second compound 0.0316 µM, first compound 0.1 µM
[21] = second compound 0.0316 µM, first compound 0.316 µM
[22] = second compound 0.0316 µM, first compound 1 µM
[23] = second compound 0.0316 µM, first compound 3.16 µM
[24] = second compound 0.0316 µM, first compound 10 µM
[25] = second compound 0.1 µM, first compound 0.0316 µM
[26] = second compound 0.1 µM, first compound 0.1 µM
[27] = second compound 0.1 µM, first compound 0.316 µM
[28] = second compound 0.1 µM, first compound 1 µM
[29] = second compound 0.1 µM, first compound 3.16 µM
[30] = second compound 0.1 µM, first compound 10 µM
[31] = second compound 0.316 µM, first compound 0.0316 µM
[32] = second compound 0.316 µM, first compound 0.1 µM
[33] = second compound 0.316 µM, first compound 0.316 µM
[34] = second compound 0.316 µM, first compound 1 µM
[35] = second compound 0.316 µM, first compound 3.16 µM
[36] = second compound 0.316 µM, first compound 10 µM
[37] = second compound 1 µM, first compound 0.0316 µM
[38] = second compound 1 µM, first compound 0.1 µM
[39] = second compound 1 µM, first compound 0.316 µM
[40] = second compound 1 µM, first compound 1 µM
[41] = second compound 1 µM, first compound 3.16 µM
[42] = second compound 1 µM, first compound 10 µM
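Note: spheroids exposed to agents for seven days before the viability read.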

**Q.** How did the IC50 [1] turn out when `Cn1nccc1Nc1nccc(-c2ccn(C(CO)c3ccc(Cl)c(F)c3)c(=O)c2)n1` (stereo not given) + CC(Nc1ccc2c(c1)OCCn1cc(N3C(=O)OCC3C(F)F)nc1-2)C(N)=O was run?
**A.** Its IC50 is 4610 nM.

**Q.** What about the IC50 [2] of the same molecule?
**A.** The IC50 was 3920 nM.

**Q.** And the IC50 [3]?
**A.** The IC50 was 2320 nM.

**Q.** And the IC50 [4]?
**A.** Its IC50 is 1150 nM.

**Q.** What about the IC50 [5] of the same molecule?
**A.** The IC50 was 986 nM.

**Q.** What about the IC50 [6] of the same molecule?
**A.** The IC50 was 1240 nM.

**Q.** And the viability, T/C [7]?
**A.** Its viability, T/C is 94.1%.

**Q.** What about the viability, T/C [8] of the same molecule?
**A.** The viability, T/C was 87%.

**Q.** And the viability, T/C [9]?
**A.** The viability, T/C was 74.5%.

**Q.** What about the viability, T/C [10] of the same molecule?
**A.** Its viability, T/C is 71.3%.

**Q.** What about the viability, T/C [11] of the same molecule?
**A.** The viability, T/C was 53.8%.

**Q.** What about the viability, T/C [12] of the same molecule?
**A.** Its viability, T/C is 40.1%.

**Q.** What about the viability, T/C [13] of the same molecule?
**A.** The viability, T/C was 100%.

**Q.** And the viability, T/C [14]?
**A.** Its viability, T/C is 97.6%.

**Q.** And the viability, T/C [15]?
**A.** Its viability, T/C is 81.8%.

**Q.** And the viability, T/C [16]?
**A.** Its viability, T/C is 71.1%.

**Q.** And the viability, T/C [17]?
**A.** The viability, T/C was 50.7%.

**Q.** What about the viability, T/C [18] of the same molecule?
**A.** Its viability, T/C is 41%.

**Q.** And the viability, T/C [19]?
**A.** The viability, T/C was 86.8%.

**Q.** What about the viability, T/C [20] of the same molecule?
**A.** Its viability, T/C is 103%.

**Q.** What about the viability, T/C [21] of the same molecule?
**A.** The viability, T/C was 87.7%.

**Q.** What about the viability, T/C [22] of the same molecule?
**A.** The viability, T/C was 58.3%.

**Q.** And the viability, T/C [23]?
**A.** The viability, T/C was 54.2%.

**Q.** And the viability, T/C [24]?
**A.** Its viability, T/C is 38.4%.

**Q.** And the viability, T/C [25]?
**A.** Its viability, T/C is 96.8%.

**Q.** What about the viability, T/C [26] of the same molecule?
**A.** Its viability, T/C is 91.6%.

**Q.** What about the viability, T/C [27] of the same molecule?
**A.** The viability, T/C was 78.1%.

**Q.** And the viability, T/C [28]?
**A.** Its viability, T/C is 50.8%.

**Q.** What about the viability, T/C [29] of the same molecule?
**A.** The viability, T/C was 38.8%.

**Q.** What about the viability, T/C [30] of the same molecule?
**A.** The viability, T/C was 33%.

**Q.** And the viability, T/C [31]?
**A.** Its viability, T/C is 92.5%.

**Q.** And the viability, T/C [32]?
**A.** The viability, T/C was 100%.

**Q.** And the viability, T/C [33]?
**A.** The viability, T/C was 66.8%.

**Q.** What about the viability, T/C [34] of the same molecule?
**A.** Its viability, T/C is 52.6%.

**Q.** And the viability, T/C [35]?
**A.** Its viability, T/C is 37.4%.

**Q.** And the viability, T/C [36]?
**A.** The viability, T/C was 29.1%.

**Q.** What about the viability, T/C [37] of the same molecule?
**A.** The viability, T/C was 96.8%.

**Q.** And the viability, T/C [38]?
**A.** Its viability, T/C is 93.7%.

**Q.** And the viability, T/C [39]?
**A.** Its viability, T/C is 72.5%.

**Q.** And the viability, T/C [40]?
**A.** The viability, T/C was 44.9%.

**Q.** And the viability, T/C [41]?
**A.** Its viability, T/C is 40.5%.

**Q.** What about the viability, T/C [42] of the same molecule?
**A.** The viability, T/C was 6.88%.

**Q.** `CC(Cn1ccc(-c2ccc(C#N)c(Cl)c2)n1)NC(=O)c1cc(C(C)O)[nH]n1` (stereo not given) + COc1c(OCCCN2CCOCC2)ccc2c3n(c(=NC(=O)c4cnc(N)nc4)nc12)CCN3 was tested. Which IC50 [1] did it give?
**A.** The IC50 was > 10000 nM.

**Q.** What about the IC50 [2] of the same molecule?
**A.** The IC50 was > 10000 nM.

**Q.** And the IC50 [3]?
**A.** Its IC50 is > 10000 nM.

**Q.** What about the IC50 [4] of the same molecule?
**A.** The IC50 was > 10000 nM.

**Q.** What about the IC50 [5] of the same molecule?
**A.** The IC50 was < 31.6 nM.

**Q.** What about the IC50 [6] of the same molecule?
**A.** The IC50 was < 31.6 nM.

**Q.** What about the viability, T/C [7] of the same molecule?
**A.** Its viability, T/C is 93.9%.

**Q.** What about the viability, T/C [8] of the same molecule?
**A.** The viability, T/C was 93.3%.

**Q.** What about the viability, T/C [9] of the same molecule?
**A.** Its viability, T/C is 88.6%.

**Q.** What about the viability, T/C [10] of the same molecule?
**A.** The viability, T/C was 95.8%.

**Q.** And the viability, T/C [11]?
**A.** Its viability, T/C is 104%.

**Q.** What about the viability, T/C [12] of the same molecule?
**A.** The viability, T/C was 91.3%.

**Q.** And the viability, T/C [13]?
**A.** The viability, T/C was 99.4%.

**Q.** And the viability, T/C [14]?
**A.** The viability, T/C was 86.7%.

**Q.** And the viability, T/C [15]?
**A.** The viability, T/C was 100%.

**Q.** And the viability, T/C [16]?
**A.** The viability, T/C was 90.8%.

**Q.** What about the viability, T/C [17] of the same molecule?
**A.** The viability, T/C was 90.3%.

**Q.** What about the viability, T/C [18] of the same molecule?
**A.** The viability, T/C was 86.2%.

**Q.** What about the viability, T/C [19] of the same molecule?
**A.** Its viability, T/C is 99.1%.

**Q.** And the viability, T/C [20]?
**A.** The viability, T/C was 102%.

**Q.** What about the viability, T/C [21] of the same molecule?
**A.** Its viability, T/C is 99.9%.

**Q.** And the viability, T/C [22]?
**A.** The viability, T/C was 109%.

**Q.** What about the viability, T/C [23] of the same molecule?
**A.** The viability, T/C was 93.2%.

**Q.** And the viability, T/C [24]?
**A.** Its viability, T/C is 84.2%.

**Q.** What about the viability, T/C [25] of the same molecule?
**A.** Its viability, T/C is 90.8%.

**Q.** What about the viability, T/C [26] of the same molecule?
**A.** The viability, T/C was 91.4%.

**Q.** And the viability, T/C [27]?
**A.** Its viability, T/C is 90.2%.

**Q.** And the viability, T/C [28]?
**A.** Its viability, T/C is 96.8%.

**Q.** And the viability, T/C [29]?
**A.** The viability, T/C was 89.2%.

**Q.** And the viability, T/C [30]?
**A.** Its viability, T/C is 83.4%.

**Q.** And the viability, T/C [31]?
**A.** Its viability, T/C is 35.2%.

**Q.** And the viability, T/C [32]?
**A.** The viability, T/C was 34.7%.

**Q.** What about the viability, T/C [33] of the same molecule?
**A.** Its viability, T/C is 45.3%.

**Q.** And the viability, T/C [34]?
**A.** The viability, T/C was 33.5%.

**Q.** And the viability, T/C [35]?
**A.** The viability, T/C was 36%.

**Q.** What about the viability, T/C [36] of the same molecule?
**A.** Its viability, T/C is 28.5%.

**Q.** And the viability, T/C [37]?
**A.** The viability, T/C was 27.7%.

**Q.** And the viability, T/C [38]?
**A.** Its viability, T/C is 17.2%.

**Q.** And the viability, T/C [39]?
**A.** Its viability, T/C is 20.3%.

**Q.** And the viability, T/C [40]?
**A.** Its viability, T/C is 24.8%.

**Q.** What about the viability, T/C [41] of the same molecule?
**A.** The viability, T/C was 18.8%.

**Q.** And the viability, T/C [42]?
**A.** The viability, T/C was 17.8%.

**Q.** Which viability, T/C (compound 0.0316 µM) does the source give for `Cn1ncc(Cl)c1-c1cc(C(=O)NC(CN)Cc2cccc(F)c2)sc1Cl` (stereo not given) here?
**A.** The viability, T/C was 94% [middle of 4 runs].

**Q.** And the viability, T/C (compound 0.1 µM)?
**A.** The viability, T/C was 97.8% [middle of 4 runs].

**Q.** What about the viability, T/C (compound 0.316 µM) of the same molecule?
**A.** The viability, T/C was 96.6% [middle of 4 runs].

**Q.** What about the viability, T/C (compound 1 µM) of the same molecule?
**A.** Its viability, T/C is 97.7% [middle of 4 runs].

**Q.** What about the viability, T/C (compound 10 µM) of the same molecule?
**A.** Its viability, T/C is 35.6% [middle of 4 runs].

**Q.** And the IC50 (curve of compound)?
**A.** The IC50 was 6.53 µM [middle of 4 runs].
